Assay results as given in patent US9958439B2, “Carbohydrate detection” (RICHTER LIFE SCIENCE DEVELOPMENT AB, priority 2012, dated 2018).

Columns and labels:
[1] = tested on: biofilm (curli, cellulose) of S. enteritidis 3934 wt and isogenic mutants; assay: Real time tracking of biofilm formation with h-FTAA; assay type: cell-based, Salmonella enteritidis; settings: 2 μg/ml in culture, curli Ex 405/Em 556 nm, cellulose Ex 500/Em 600 nm, hourly over 48 h
Description: A) comparison of OD600 (. . . ) against GFP signal (_) of a wt biofilm culture over 48 hours; B) correlation of OD600 against GFP signal; […].
The turbidity of a bacterial culture, measured by absorbance at OD600, is used to define culture density. Expression of GFP provides a direct representation of bacterial growth and culture density. S. enteritidis 3934 wt and isogenic mutants ΔbscA, ΔcsgA, and ΔcsgD were transformed with the plasmid P2777 which carries the gfp gene for a more direct representation of culture density through fluorescence detection. […] […]. RFU data of GFP and h-FTAA from the four plates were combined in a single plot to visualize the hourly change in signals over time.

[2] = tested on: biofilm of S. enteritidis wt strain 3934 and isogenic mutants ΔbscA, ΔcsgA, ΔcsgD; assay: LCO assay for fluorescence confocal analysis of biofilm and biofilm morphology; assay type: cell-based, Salmonella enteritidis
Excerpt: Fluorescence confocal analysis (left side) and phase contrast analysis (right side) of the same slide are shown side by side.
Glass cover-slips were introduced to the wells of a 6-well plate (according to the set-up shown in FIG. 2A) to provide surfaces for biofilm formation, which at the end of experiment could be easily removed for microscope analysis. To prepare for the biofilm experiment, individual cultures of S. enteritidis wt strain 3934 and isogenic mutants ΔbscA, ΔcsgA, and ΔcsgD were grown in LB medium in flasks overnight. Each culture was diluted 100-fold in fresh LB and cultivated in a shaking incubator (230 rpm) at 37° C. to OD600=0.6. Cultures were diluted to a culture density of 10^5 CFU/ml in LB without salt and dispensed into the cover-slip containing 6 well plates in 8 ml aliquots. After incubating the plates for 48 h at 28° C., glass cover-slips were removed and washed twice with PBS before fixation in 4 ml of 4% formaldehyde for 1 h. […] PBS functioned as the negative control, used to assess the level of auto-fluorescence. Treated slides were then washed twice with PBS and mounted with Vectashield® for fluorescence-based confocal laser scanning microscopy analysis. Specifically, the edge of the biofilm formed at the liquid air interface was visualized using the appropriate fluorescence filters. […] The right side is an overlay of an optical inspection of bacterial presence by phase contrast with LCO fluorescence. Phase contrast is a traditional method for visual confirmation of biofilm attachment on surfaces.

O=C(O)Cc1cc(-c2ccc(-c3ccc(C(=O)O)s3)s2)sc1-c1ccc(-c2sc(-c3ccc(-c4ccc(C(=O)O)s4)s3)cc2CC(=O)O)s1 [h-FTAA, hepta Formic Thiophene Acetic Acid]
real time analysis of biofilm formation [1]: enables real time analysis of biofilm formation | fluorescent signal from the LCO on biofilm versus phase contrast microscopy ([2]; 2 μg/ml LCO, fixed and washed cover-slip biofilm): coincides with visible bacteria aggregates | fluorescent signal with cellulose+ curli− ΔcsgA biofilm ([2]; 2 μg/ml, ΔcsgA, confocal microscopy): gave a fluorescent signal
